Holding throughout (type): biochemical
The target of one assay is T1, caspase 7 (Homo sapiens, UniProt P55210).
T1 construct: purchased Sigma-Aldrich (St. Louis, Mo.)
T1 sequence (P55210 24-198 limits assumed): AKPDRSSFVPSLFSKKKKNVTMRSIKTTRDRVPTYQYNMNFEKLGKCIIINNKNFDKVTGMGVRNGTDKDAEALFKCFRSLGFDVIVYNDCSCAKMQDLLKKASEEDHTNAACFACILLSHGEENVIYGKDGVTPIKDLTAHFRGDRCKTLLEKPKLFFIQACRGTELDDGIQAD
T1 sequence (P55210 207-303 limits assumed): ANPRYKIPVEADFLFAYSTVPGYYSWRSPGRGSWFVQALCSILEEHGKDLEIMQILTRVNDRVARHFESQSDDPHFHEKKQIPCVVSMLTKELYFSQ
Put plainly: Enzyme inhibition assay, caspase 7 (fluorogenic Ac-DEVD-AMC).

A further assay has as its target T2, caspase 6 (Homo sapiens, UniProt P55212).
T2 construct: purchased Sigma-Aldrich (St. Louis, Mo.)
T2 sequence (P55212 24-179 limits assumed): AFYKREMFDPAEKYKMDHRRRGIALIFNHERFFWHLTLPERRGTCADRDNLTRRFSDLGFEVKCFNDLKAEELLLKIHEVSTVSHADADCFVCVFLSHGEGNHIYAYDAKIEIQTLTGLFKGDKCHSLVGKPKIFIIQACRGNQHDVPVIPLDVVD
T2 sequence (P55212 194-293 limits assumed): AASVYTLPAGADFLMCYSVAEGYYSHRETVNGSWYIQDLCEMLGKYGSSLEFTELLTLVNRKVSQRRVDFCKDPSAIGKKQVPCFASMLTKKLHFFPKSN
Put plainly: Enzyme inhibition assay, caspase 6 (fluorogenic Ac-VEID-AMC).

The next assay deals with T3, caspase 1 (Homo sapiens, UniProt P29466).
T3 construct: purchased BIOMOL Research Laboratories (Plymouth Meeting, Pa.)
T3 sequence (P29466 120-297 limits assumed): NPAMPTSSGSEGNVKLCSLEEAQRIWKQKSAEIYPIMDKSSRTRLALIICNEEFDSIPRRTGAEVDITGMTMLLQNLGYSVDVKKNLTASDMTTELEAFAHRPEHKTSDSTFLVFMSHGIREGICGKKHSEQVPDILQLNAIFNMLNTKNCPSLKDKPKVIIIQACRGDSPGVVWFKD
T3 sequence (P29466 317-404 limits assumed): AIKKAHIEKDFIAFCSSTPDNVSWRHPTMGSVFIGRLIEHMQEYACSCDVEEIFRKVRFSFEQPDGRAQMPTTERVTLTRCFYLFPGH
Nature of the assay: Enzyme inhibition assay, caspase 1 (fluorogenic Ac-YVAD-AMC).

In another assay the target is T4, caspase-3 (Homo sapiens, UniProt P42574).
T4 construct: purchased Sigma-Aldrich (St. Louis, Mo.)
T4 sequence (P42574 29-175 limits assumed): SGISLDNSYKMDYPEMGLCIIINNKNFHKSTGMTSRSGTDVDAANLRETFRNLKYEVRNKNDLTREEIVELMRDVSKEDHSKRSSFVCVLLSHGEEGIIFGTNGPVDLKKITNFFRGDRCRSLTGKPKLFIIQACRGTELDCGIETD
T4 sequence (P42574 176-277 limits assumed): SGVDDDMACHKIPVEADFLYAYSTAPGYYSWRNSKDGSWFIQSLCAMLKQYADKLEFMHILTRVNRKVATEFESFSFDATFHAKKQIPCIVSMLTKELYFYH
Put plainly: Enzyme inhibition assay, caspase 3 (fluorogenic Ac-DEVD-AMC).

Another assay has as its target T5, caspase 8 (Homo sapiens, UniProt Q14790).
T5 construct: purchased Sigma-Aldrich (St. Louis, Mo.)
Put plainly: Enzyme inhibition assay, caspase 8 (fluorogenic Ac-IETD-AMC).

[1] abbreviates: Table 6, read-out: IC50 (nM) caspase-7.
[2] abbreviates: Table 6, read-out: IC50 (nM) caspase-6.
[3] abbreviates: Table 6, read-out: IC50 (nM) caspase-1.
Setting [4] is: Table 6, read-out: IC50 (nM) caspase-3.
Setting [5] is: Table 6, read-out: IC50 (nM) caspase-8.
Setting [6] is: Table 2, read-out: IC50 (nM) Caspase 7.
Setting [7] is: Table 2, read-out: IC50 (nM) Caspase 6.
Where [8] appears, read: Table 2, read-out: IC50 (nM) Caspase 1.
[9] abbreviates: Table 2, read-out: IC50 (nM) Caspase 3.
Setting [10] is: Table 2, read-out: IC50 (nM) Caspase 8.
Setting [11] is: Table 1, read-out: IC50 (nM) Caspase 1.
[12] abbreviates: Table 7, read-out: IC50 (nM) Casp-1.
[13] abbreviates: Table 1, read-out: IC50 (nM) Caspase 8.
[14] abbreviates: Table 7, read-out: IC50 (nM) Casp-8.
Where [15] appears, read: Table 4, read-out: IC50 (nM) caspase-7.
[16] abbreviates: Table 4, read-out: IC50 (nM) caspase-3.

The values below come from US8329686B2, “Isatin analogues and uses therefor” (Washington University, priority 2006, dated 2012).

Read-outs that look alike come from different tables or passages of the source. Residues, ends and D or L forms follow the SMILES beside them.

T5 sequence (Q14790 217-374 limits assumed): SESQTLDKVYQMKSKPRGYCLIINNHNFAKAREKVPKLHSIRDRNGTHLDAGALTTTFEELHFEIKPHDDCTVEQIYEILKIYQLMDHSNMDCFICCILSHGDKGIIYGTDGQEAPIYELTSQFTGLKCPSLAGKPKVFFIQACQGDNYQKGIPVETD
T5 sequence (Q14790 385-479 limits assumed): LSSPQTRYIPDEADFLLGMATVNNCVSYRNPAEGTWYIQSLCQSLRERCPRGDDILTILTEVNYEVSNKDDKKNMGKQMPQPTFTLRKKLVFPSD
Description for caspase 1: (§1) Enzyme Assays. Inhibition of recombinant human caspase-3 and other caspases by the isatin analogues was assessed using a fluorometric assay by measuring the accumulation of a fluorogenic product, 7-amino-4-methylcoumarin (7-AMC).
(§2) Enzyme Inhibition Assays. Recombinant human caspases (3, 6, 7, and 8) and their peptide-specific substrates (Ac-DEVDAMC, Ac-VEID-AMC, Ac-DEVD-AMC, and Ac-IETD-AMC, respectively) were purchased from Sigma-Aldrich (St. Louis, Mo.) with the exception of caspase 1 and its substrate (Ac-YVAD-AMC), which were obtained from BIOMOL Research Laboratories (Plymouth Meeting, Pa.). The enzymatic activity of caspases was determined by measuring the accumulation of the fluorogenic product 7-amino-4-methylcoumarin (AMC). All assays were prepared in 96-well format at a volume of 210 μL per well and consisted of 100 mM Na+ HEPES (pH 7.4), 10% sucrose, 100 mM NaCl, 0.1% CHAPS, 5 mM 2-mercaptoethanol, 2 mM EDTA, 10 μM Ac-YVAD-AMC (caspase 1); 20 mMNa^+ HEPES (pH 7.4), 10% sucrose, 100 mMNaCl, 0.1% CHAPS, 2 mM EDTA, 10 μM Ac-DEVD-AMC (caspase 3); 20 mM Na^+ HEPES (pH 7.4), 10% sucrose, 100 mM NaCl, 0.1% CHAPS, 2 mM EDTA, 10 μM Ac-VEID-AMC (caspase 6); 20 mM Na+ HEPES (pH 7.4), 100 mM NaCl, 10% sucrose, 0.1% CHAPS, 5 mM 2-mercaptoethanol, 2 mM EDTA, 10 μM Ac-DEVD-AMC (caspase 7); 20 mM Na+ HEPES (pH 7.4), 10% sucrose, 100 mM NaCl, 0.1% CHAPS, 2 mM EDTA, 10 μM Ac-IETD-AMC (caspase 8).
(§3) Recombinant caspases were first assayed to determine the optimal concentration for each experiment. Optimal concentrations were based in the linear range of the enzyme activation curves. Peptide inhibitors with known IC50 values were tested together with the compounds as a control for each caspase assay. […] Peptide and nonpeptide inhibitors were dissolved in DMSO, and a 2 serial dilution was performed prior to screening in order to obtain desired concentrations. 10 μL was added to each well containing 100 μL caspase solution and allowed to incubate on ice for 30 min. […] The final concentration of DMSO in all wells was 5% of the total volume. In caspase-1 and caspase-7 assays, 10 mM 2-mercaptoethanol was added to the substrate solution for full activation of the enzymes.
(§4) Compounds were tested in duplicate, and IC50 curves were calculated for all inhibitors assayed. Final IC50s were the average of three independent experiments.
Description for caspase 7: as §1, §2, §3, §4

Take `CSc1ccc(CN2C(=O)C(=O)c3cc(S(=O)(=O)N4CCCC4COc4cccnc4)ccc32)cc1` (stereo not drawn) [Compound 21d, 1-(4-Methylthiobenzyl)-5-(2-(pyridin-3-yl-oxymethyl)-pyrrolidine-1-sulfonyl)-1H-indole-2,3-dione]: the IC50 was 23.3 ± 0.7 nM on caspase 7 (setting [1]); greater than 5000 nM on caspase 6 (setting [2]); greater than 50000 nM on caspase 1 (setting [3]); 4.4 ± 1.4 nM at caspase-3 (setting [4]); greater than 50000 nM at caspase 8 (setting [5]).
Turning to `N#CC(C#N)=C1C(=O)N(Cc2ccc(OCCF)cc2)c2ccc(S(=O)(=O)N3CCC[C@H]3COc3ccccc3)cc21` [WC-II-92], the IC50 is 96.3 ± 20.7 nM at caspase 7 (setting [6]); 927 ± 35 nM on caspase 6 (setting [7]); 10000 nM at caspase 1 (setting [8]); 18.3 ± 0.4 nM at caspase-3 (setting [9]); greater than 50000 nM on caspase 8 (setting [10]).
`O=C1C(=O)N(Cc2ccc(Br)cc2)c2ccc(S(=O)(=O)N3CCCC3COc3cccnc3)cc21` (stereo not drawn) [Compound 28c, 1-(4-Bromo-benzyl)-5-[2-(pyridin-3-yl-oxymethyl)-pyrrolidine-1-sulfonyl]-1H-indole-2,3-dione]: the concentration for half-maximal inhibition (IC50) on caspase 7 (IC50 (nM) Casp-7, Table 7) was 6.6 ± 0.1 nM; against caspase 7 (IC50 (nM) Caspase 7, Table 1) it was 6.6 ± 0.1 nM; on caspase 1 (setting [11]) it was greater than 15000 nM; on caspase 1 (setting [12]) it was greater than 15000 nM; against caspase-3 (IC50 (nM) Casp-3, Table 7), 3.6 ± 0.5 nM; against caspase-3 (IC50 (nM) Caspase 3, Table 1), 3.6 ± 0.5 nM. In addition, the 50% inhibitory concentration (IC50) on caspase 8 (setting [13]) and at caspase 8 (setting [14]) was greater than 50000 nM throughout.
With `O=C1C(=O)N(Cc2ccc(F)nc2)c2ccc(S(=O)(=O)N3CCC[C@H]3COc3ccccc3)cc21` [Compound 11g, (S)-1-(6-Fluoropyridin-3-yl-methyl)-5-(2-phenoxymethylpyrrolidine-1-sulfonyl)-1H-indole-2,3-dione], the IC50 at caspase 7 (setting [15]) came to 14.5 ± 0.9 nM; at caspase-3 (setting [16]), 10.3 ± 1.5 nM.
In the case of `N#CC(C#N)=C1C(=O)N(Cc2ccc(Br)cc2)c2ccc(S(=O)(=O)N3CCCC3COc3cccnc3)cc21` (stereo not drawn) [Compound 30c, 2-{1-(4-Bromo-benzyl)-2-oxo-5-[2-(pyndine-3-yloxymethyl)-pyrrolidine-1-sulfonyl]-1,2-dihydro-indol-3-yl-idene}-malononitrile], the half-maximal inhibitory concentration (IC50) was 26.3 ± 0.8 nM on caspase 7 (IC50 (nM) Casp-7, Table 7); 26.3 ± 0.8 nM against caspase 7 (IC50 (nM) Caspase 7, Table 2); 26.3 nM against caspase 7 (IC50 for caspase-7); 515 ± 77 nM against caspase 6; 515 to 770 nM on caspase 6 (read-out: IC50 for caspase-6); 3400 nM at caspase 1. The IC50 was 3400 nM against caspase 1 (IC50 (nM) Casp-1, Table 7); 2700 to 3200 nM on caspase 1 (read-out: IC50 for caspase-1); 5.13 ± 0.7 nM against caspase-3 (IC50 (nM) Caspase 3, Table 2); 5.1 nM on caspase-3 (IC50 for caspase-3); greater than 50000 nM on caspase 8 (setting [10]); greater than 50000 nM on caspase 8 (setting [14]). Moreover, the half-inhibitory concentration (IC50) on caspase 8 (read-out: IC50 for caspase-8) was greater than 50000 nM.
On to `COc1ccc(CN2C(=O)C(=CC#N)c3cc(S(=O)(=O)N4CCC[C@H]4COc4ccccc4)ccc32)cc1` [WC-II-99], for which the IC50 on caspase-3 (setting [9]) is greater than 1000 nM. For the same compound, at caspase-3, the “potency as caspase-3/7 inhibitors (in words)” value is reported as “low potency”.
Take “(S)-1-(4-Methoxybenzyl)-5-(2-phenoxymethyl-pyrrolidine-1-sulfonyl)-1H-indole-2,3-dione [Compound 11b]”: the half-inhibitory concentration (IC50) at caspase 7 (setting [15]) was 21.8 ± 3.5 nM; on caspase 6 (Table 4, read-out: IC50 (nM) caspase-6) it was greater than 5000 nM; at caspase 1 (Table 4, read-out: IC50 (nM) caspase-1), greater than 10000 nM; on caspase-3 (setting [16]), 14.5 ± 1.6 nM; at caspase 8 (Table 4, read-out: IC50 (nM) caspase-8) it was greater than 50000 nM.
With `CC(=O)N[C@@H](CC(=O)O)C(=O)N[C@@H](CCC(=O)O)C(=O)N[C@H](C(=O)N[C@H](C=O)CC(=O)O)C(C)C` [Ac-DEVD-CHO, reference compound], the half-maximal inhibitory concentration (IC50) on caspase 7 (Table 1, read-out: IC50 (nM) Caspase 7) came to 8.5 ± 1 nM; on caspase 7 (setting [6]) it was 8 ± 1 nM.
Take `CN1C(=O)C(=C(C#N)C#N)c2cc(S(=O)(=O)N3CCCC3COc3ccccc3)ccc21` (stereo not drawn) [Compound 27a, 2-[1-Methyl-2-oxo-5-(2-phenoxymethyl-pyrrolidine-1-sulfonyl)-1,2-dihydro-indol-3-yl-idene]-malononitrile]: the IC50 was found to be 785 ± 276 nM on caspase 7 (setting [6]); 785 ± 276 nM on caspase 7 (Table 7, read-out: IC50 (nM) Casp-7); 698 ± 94 nM on caspase 6 (setting [7]); 698 ± 94 nM on caspase 6 (Table 7, read-out: IC50 (nM) Casp-6); 2820 nM at caspase 1 (setting [8]); 2820 ± 248 nM on caspase 1 (setting [12]). The IC50 at caspase-3 (setting [9]) was 119 ± 4 nM; on caspase-3 (Table 7, read-out: IC50 (nM) Casp-3), 119 ± 4 nM; at caspase 8 (setting [10]), greater than 50000 nM; at caspase 8 (setting [14]), greater than 50000 nM.
For `O=C1C(=O)N(Cc2ccc(F)cc2)c2ccc(S(=O)(=O)N3CCCC3COc3cccnc3)cc21` (stereo not drawn) [Compound 21e, 1-(4-Fluorobenzyl)-5-(2-(pyridin-3-yl-oxymethyl)-pyrrolidine-1-sulfonyl)-1H-indole-2,3-dione], the IC50 on caspase 7 (setting [1]) is 15.1 ± 0.1 nM; on caspase 6 (setting [2]), greater than 5000 nM; on caspase 1 (setting [3]) it was greater than 10000 nM; on caspase-3 (setting [4]), 8.4 ± 2 nM; at caspase 8 (setting [5]) it was greater than 50000 nM.
In the case of `CC(=O)N[C@@H](Cc1ccc(O)cc1)C(=O)N[C@H](C(=O)N[C@@H](C)C(=O)N[C@H](C=O)CC(=O)O)C(C)C` [Ac-YVAD-CHO, reference compound], the IC50 on caspase 1 (setting [11]) and at caspase 1 (setting [8]) was 8.1 ± 2.1 nM each time.
Take `N#CC(C#N)=C1C(=O)Nc2ccc(S(=O)(=O)N3CC[C@H]3COc3ccccc3)cc21` [WC-II-54]: the concentration for half-maximal inhibition (IC50) at caspase 7 (setting [6]) is 2380 nM; at caspase 6 (setting [7]), 540 ± 44 nM; at caspase 1 (setting [8]) it was 2380 nM; at caspase-3 (setting [9]) it was 283 ± 15 nM; at caspase 8 (setting [10]), greater than 50000 nM.
Regarding `O=C1Nc2ccc(S(=O)(=O)N3CC[C@H]3COc3ccccc3)cc2C1=NO` [WC-II-52], the half-maximal inhibitory concentration (IC50) at caspase 7 (setting [6]) is greater than 50000 nM; on caspase 6 (setting [7]), greater than 20000 nM; at caspase 1 (setting [8]), greater than 50000 nM; on caspase-3 (setting [9]) it was greater than 20000 nM; on caspase 8 (setting [10]) it was greater than 50000 nM. The “potency as caspase-3/7 inhibitors (in words)” value at caspase-3 was “low potency”.
Consider `O=C1Nc2ccc(S(=O)(=O)N3CCC[C@H]3COc3ccccc3)cc2C1=O` [Compound 10, (S)-5-(2-Phenoxymethyl-pyrrolidine-1-sulfonyl)-1H-indole-2,3-dione], for which the IC50 at caspase 7 (setting [15]) turned out to be 540 ± 56.6 nM; at caspase-3 (setting [16]), 240 ± 10 nM.
As to `O=C1Nc2ccc(S(=O)(=O)N3CCC[C@H]3COc3ccccc3)cc2C1=NO` [WC(II)-51], the “potency as caspase-3/7 inhibitors (in words)” value on caspase-3 is recorded as “low potency”.
With `CC[C@H](C)[C@H](NC(C)=O)C(=O)N[C@@H](CCC(=O)O)C(=O)N[C@H](C(=O)N[C@H](C=O)CC(=O)O)[C@@H](C)O` [Ac-IETD-CHO, reference compound] (Ac-IETD-aldehyde), the IC50 at caspase 8 (setting [13]) amounted to 4.7 ± 0.9 nM; on caspase 8 (setting [10]) it was 4 ± 0.1 nM.
With `O=C1C(=O)N(Cc2ccc(O)cc2)c2ccc(S(=O)(=O)N3CCC[C@H]3COc3ccccc3)cc21` [Compound 11f, (S)-1-(4-Hydroxybenzyl)-5-(2-phenoxymethyl-pyrrolidine-1-sulfonyl)-1H-indole-2,3-dione], the IC50 at caspase 7 (setting [15]) was determined as 44 ± 0.1 nM; on caspase-3 (setting [16]), 13.5 ± 2.4 nM.
Regarding `O=C1C(=O)N(Cc2ccc(OCCF)cc2)c2ccc(S(=O)(=O)N3CCCC3COc3ccccc3)cc21` (stereo not drawn) [WC-II-89, 1-[4-(2-Fluoroethoxy)-benzyl]-5-(2-phenoxymethyl-pyrrolidine-1-sulfonyl)-1H-indole-2,3-dione], the IC50 at caspase 6 (Table 1, read-out: IC50 (nM) Caspase 6) was 3720 nM; on caspase 1 (setting [11]), greater than 15000 nM; on caspase-3 (Table 1, read-out: IC50 (nM) Caspase 3), 9.7 ± 1.3 nM; on caspase 8 (setting [13]) it was greater than 50000 nM.

By IC50 is commonly meant the point on the concentration scale where inhibition reaches its midpoint.
